Test results: patent US4012576A, “Antibiotic complex Bu 2183” (priority 1975, dated 1977)
In brackets after ≈: the same amount, converted by molar mass. Read-outs that look alike come from different tables or passages of the source.

Experiments:
[1] = test system: Ps. aeruginosa A9930; experiment: Experimental infection of mice, median protective dose; type: in vivo; details: Pseudomonas aeruginosa, A9930, sc, 120 h
Procedure: (§1) Bu-2183 A and B were evaluated in vivo in experimental infections of mice. The pathogenic bacteria employed were S. aureus Smith, E. coli NIHJ and Ps. aeruginosa A9930. Mice were challenged with a 100 × LD50 dose of the pathogens in a 5% suspension of hog gastric mucin. A single subcutaneous treatment with the antibiotic was made immediately after the bacterial challenge (0 hour), and in a double dose schedule the antibiotic was administered at 0 and 3 hours after the challenge.

[2] = test system: S. aureus Smith; experiment: as above; type: in vivo; details: Staphylococcus aureus, sc, 120 h
Procedure: as §1

[3] = test system: E. coli NIHJ; experiment: as above; type: in vivo; details: Escherichia coli, sc, 120 h
Procedure: as §1

[4] = Titration in water; type: physicochemical
[5] = test system: S. aureus D133; experiment: MIC, two-fold agar dilution on Nutrient Agar; type: cell-based; details: Staphylococcus aureus, read-out: MIC
Procedure: (§2) The minimum inhibitory concentrations (MIC) of Bu-2183 A and B were determined against a wide variety of bacteria by the two-fold agar dilution method on Nutrient Agar plates. The inocula-replicating device of Steers et al. was used. Inoculum size was adjusted to be 10^4 dilution of overnight culture of the test organisms in Heart Infusion Broth (Difco). The results are shown in Table 6 along with those of kanamycin which was comparatively tested as a reference antibiotic.

[6] = test system: S. aureus D193; experiment: MIC, two-fold agar dilution on Nutrient Agar; type: cell-based
Procedure: as §2

[7] = test system: Pr. vulgaris A9436; experiment: MIC, two-fold agar dilution on Nutrient Agar; type: cell-based; details: Proteus vulgaris, read-out: MIC
Procedure: as §2

[8] = test system: Pr. morganii A20031; experiment: MIC, two-fold agar dilution on Nutrient Agar; type: cell-based
Procedure: as §2

[9] = test system: Ps. aeruginosa A20601; experiment: MIC, two-fold agar dilution on Nutrient Agar; type: cell-based; details: Pseudomonas aeruginosa, read-out: MIC
Procedure: as §2

[10] = test system: K. pneumoniae D11; experiment: MIC, two-fold agar dilution on Nutrient Agar; type: cell-based; details: Klebsiella pneumoniae, read-out: MIC
Procedure: as §2

[11] = test system: Pseudomonas sp. A20621; experiment: MIC, two-fold agar dilution on Nutrient Agar; type: cell-based
Procedure: as §2

[12] = test system: E. coli A20107; experiment: MIC, two-fold agar dilution on Nutrient Agar; type: cell-based; details: Escherichia coli, read-out: MIC
Procedure: as §2

[13] = test system: Ps. aeruginosa GN 315; experiment: MIC, two-fold agar dilution on Nutrient Agar; type: cell-based
Procedure: as §2

[14] = test system: S. aureus Smith; experiment: MIC, two-fold agar dilution on Nutrient Agar; type: cell-based; details: Staphylococcus aureus, read-out: MIC
Procedure: as §2

[15] = test system: Ser. marcescens A21247; experiment: MIC, two-fold agar dilution on Nutrient Agar; type: cell-based; details: Serratia marcescens, read-out: MIC
Procedure: as §2

[16] = test system: Pr. mirabilis A9554; experiment: MIC, two-fold agar dilution on Nutrient Agar; type: cell-based; details: Proteus mirabilis, read-out: MIC
Procedure: as §2

[17] = test system: E. coli ML 1630; experiment: MIC, two-fold agar dilution on Nutrient Agar; type: cell-based; details: Escherichia coli, read-out: MIC
Procedure: as §2

[18] = test system: E. coli JR 66/W677; experiment: MIC, two-fold agar dilution on Nutrient Agar; type: cell-based; details: Escherichia coli
Procedure: as §2

[19] = test system: Prov. stuartii A20894; experiment: MIC, two-fold agar dilution on Nutrient Agar; type: cell-based
Procedure: as §2

[20] = test system: E. coli JR 35/C600; experiment: MIC, two-fold agar dilution on Nutrient Agar; type: cell-based
Procedure: as §2

[21] = test system: Ser. marcescens A20019; experiment: MIC, two-fold agar dilution on Nutrient Agar; type: cell-based
Procedure: as §2

[22] = test system: E. coli R 5; experiment: MIC, two-fold agar dilution on Nutrient Agar; type: cell-based; details: Escherichia coli
Procedure: as §2

[23] = test system: Ent. cloacae A20364; experiment: MIC, two-fold agar dilution on Nutrient Agar; type: cell-based
Procedure: as §2

[24] = test system: E. coli PO 1495; experiment: MIC, two-fold agar dilution on Nutrient Agar; type: cell-based
Procedure: as §2

[25] = test system: Gram-positive and Gram-negative bacteria; experiment: In vitro antibacterial activity (general); type: cell-based; details: for antibacterial spectrum: in vitro
Procedure: as §2

[26] = test system: eight test organisms; experiment: Effect of media on activity (overall); type: cell-based; details: pH 8; Nutrient Agar, Heart Infusion Agar, Mueller-Hinton Agar
Procedure: The effect of media on the activity of Bu-2183 A and B was determined against eight test organisms. The media tested were Nutrient Agar, Heart Infusion Agar and Mueller-Hinton Agar. The media pH was adjusted at pH 8.

[27] = Solubility; type: physicochemical; details: base
[28] = test system: S. aureus Smith, E. coli NIHJ and Ps. aeruginosa A9930; experiment: Experimental infections of mice (all three pathogens); type: in vivo; details: subcutaneous
Procedure: as §1

[29] = double dose at 0 and 3 hours after challenge, read-out: PD50 (double doses)
[30] = subcutaneous, single dose at 0 hour, 100 × LD50 challenge, read-out: PD50 (single dose)
[31] = Staphylococcus aureus, D193, Table 6, Sa-3, read-out: MIC
[32] = Morganella morganii, A20031, Table 6, Pg-2, read-out: MIC
[33] = Pseudomonas, SP.A20621, Table 6, Px-10, read-out: MIC
[34] = Pseudomonas aeruginosa, GN315, Table 6, Pa-27, read-out: MIC
[35] = Providencia stuartii, A20894, Table 6, Ps-2, read-out: MIC
[36] = Serratia marcescens, A20019, Table 6, Sm-1, read-out: MIC
[37] = Enterobacter cloacae, A20364, Table 6, El-2, read-out: MIC
[38] = Escherichia coli, PO1495, Table 6, Ec-2, read-out: MIC

`CCC(=O)NC1C(CO)OC(OC(C(O)CN)C(N)C(O)CO)C(O)C1O` (stereo not drawn) [Bu-2183 A] showed an ED50 [1, 29] of 80 mg/kg, an ED50 [1, 30] of 230 mg/kg and an ED50 [2, 29] of 36 mg/kg. The ED50 [2, 30] was 42 mg/kg, the ED50 [3, 29] was 45 mg/kg and the ED50 [3, 30] was 92 mg/kg. It also gave a pKa ([4]; read-out: pKa' (first value)) of 6.9, a pKa ([4]; read-out: pKa' (second value)) of 9.4 and an MIC ([5]; D133, Table 6, Sa-4) of 25 µg/mL (≈ 62.9 µM). The MIC ([5]; D133, Table 7, Sa-4) was 50 µg/mL (≈ 126 µM), the MIC [6, 31] was 25 µg/mL (≈ 62.9 µM) and the MIC ([6]; Table 7, Sa-3) was 25 µg/mL (≈ 62.9 µM). It also gave an MIC ([7]; A9436, Table 6, Pv-1) of 12.5 µg/mL (≈ 31.5 µM), an MIC ([7]; A9436, Table 7, Pv-1) of 25 µg/mL (≈ 62.9 µM) and an MIC [8, 32] of 25 µg/mL (≈ 62.9 µM). For the same compound, the MIC ([8]; Table 7, Pg-2) was 25 µg/mL (≈ 62.9 µM), the MIC ([9]; A20601, Table 6, Pa-21) was 25 µg/mL (≈ 62.9 µM) and the MIC ([9]; A20601, Table 7, Pa-21) was 50 µg/mL (≈ 126 µM). The MIC ([10]; D11, Table 6, Kp-1) was 3.1 µg/mL (≈ 7.8 µM), the MIC ([10]; D11, Table 7, Kp-1) was 6.3 µg/mL (≈ 15.9 µM) and the MIC [11, 33] was over 100 µg/mL. It also gave an MIC ([11]; Table 7, Px-10) of over 100 µg/mL, an MIC ([12]; A20107, Table 6, Ec-49) of 12.5 µg/mL (≈ 31.5 µM) and an MIC ([12]; A20107, Table 7, Ec-49) of 25 µg/mL (≈ 62.9 µM). It also gave an MIC [13, 34] of 25 µg/mL (≈ 62.9 µM), an MIC ([13]; Table 7, Pa-27) of 25 µg/mL (≈ 62.9 µM) and an MIC ([14]; Table 6, Sa-2) of 12.5 µg/mL (≈ 31.5 µM). The MIC ([14]; Table 7, Sa-2) was 25 µg/mL (≈ 62.9 µM), the MIC ([15]; A21247, Table 6, Sm-16) was 100 µg/mL (≈ 252 µM) and the MIC ([15]; A21247, Table 7, Sm-16) was over 100 µg/mL. For the same compound, the MIC ([16]; A9554, Table 6, Pm-1) was 12.5 µg/mL (≈ 31.5 µM), the MIC ([16]; A9554, Table 7, Pm-1) was 25 µg/mL (≈ 62.9 µM) and the MIC ([17]; ML1630, Table 6, Ec-5) was 12.5 µg/mL (≈ 31.5 µM). For the same compound, the MIC ([17]; ML1630, Table 7, Ec-5) was 25 µg/mL (≈ 62.9 µM), the MIC ([18]; JR66/W677, Table 6, Ec-53) was 6.3 µg/mL (≈ 15.9 µM) and the MIC ([18]; JR66/W677, Table 7, Ec-53) was 25 µg/mL (≈ 62.9 µM). For the same compound, the MIC [19, 35] was over 100 µg/mL, the MIC ([19]; Table 7, Ps-2) was over 100 µg/mL and the MIC ([20]; Escherichia coli, JR35/C600) was 6.3 µg/mL (≈ 15.9 µM). For the same compound, the MIC ([20]; Table 7, Ec-10) was 6.3 µg/mL (≈ 15.9 µM), the MIC [21, 36] was over 100 µg/mL and the MIC ([21]; Table 7, Sm-1) was over 100 µg/mL. It also gave an MIC ([22]; R5, Table 6, Ec-55) of 25 µg/mL (≈ 62.9 µM), an MIC ([22]; R5, Table 7, Ec-55) of 6.3 µg/mL (≈ 15.9 µM) and an MIC [23, 37] of 25 µg/mL (≈ 62.9 µM). It also gave an MIC ([23]; Table 7, El-2) of 25 µg/mL (≈ 62.9 µM), an MIC [24, 38] of 25 µg/mL (≈ 62.9 µM) and an MIC ([24]; Table 7, Ec-2) of 25 µg/mL (≈ 62.9 µM). The bio-activity [25] was “bio-active”, the “intrinsic activity in terms of MIC values” [25] was “moderate or rather weak” and the “activity of component A relative to B” value ([25]; MIC, Table 6) was 2-4 fold. For the same compound, the antibacterial spectrum [25] was “broad spectrum of antibacterial activity against Gram-positive and Gram-negative bacteria including many of the aminoglycoside-resistant organisms and Pseudomonas strains”, the “medium of greatest in vitro activity” value [26] was “the greatest in vitro activity was demonstrated when Nutrient Agar was used” and the “solubility in methanol and ethanol” value [27] was “slightly soluble”. The “solubility in n-butanol, acetone and other common organic solvents” value [27] was “practically insoluble”, the solubility in water [27] was “soluble” and the in vivo activity [28] was “afforded in vivo activity against all three of the infections tested”.

`CC(=O)NC1C(CO)OC(OC(C(O)CN)C(N)C(O)CO)C(O)C1O` (stereo not drawn) [Bu-2183 B] showed an ED50 [1, 30] of 540 mg/kg, an ED50 [2, 30] of 100 mg/kg and an ED50 [3, 30] of 135 mg/kg. The pKa ([4]; read-out: pKa' (first value)) was 7.15, the pKa ([4]; read-out: pKa' (second value)) was 9.35 and the MIC ([5]; D133, Table 6, Sa-4) was over 100 µg/mL. For the same compound, the MIC [6, 31] was 25 µg/mL (≈ 65.2 µM), the MIC ([7]; A9436, Table 6, Pv-1) was 50 µg/mL (≈ 130 µM) and the MIC [8, 32] was 50 µg/mL (≈ 130 µM). It also gave an MIC ([9]; A20601, Table 6, Pa-21) of 50 µg/mL (≈ 130 µM), an MIC ([10]; D11, Table 6, Kp-1) of 12.5 µg/mL (≈ 32.6 µM) and an MIC [11, 33] of over 100 µg/mL. The MIC ([12]; A20107, Table 6, Ec-49) was 50 µg/mL (≈ 130 µM), the MIC [13, 34] was 50 µg/mL (≈ 130 µM) and the MIC ([14]; Table 6, Sa-2) was 50 µg/mL (≈ 130 µM). For the same compound, the MIC ([15]; A21247, Table 6, Sm-16) was over 100 µg/mL, the MIC ([16]; A9554, Table 6, Pm-1) was 25 µg/mL (≈ 65.2 µM) and the MIC ([17]; ML1630, Table 6, Ec-5) was 50 µg/mL (≈ 130 µM). It also gave an MIC ([18]; JR66/W677, Table 6, Ec-53) of 25 µg/mL (≈ 65.2 µM), an MIC [19, 35] of over 100 µg/mL and an MIC ([20]; Escherichia coli, JR35/C600) of 12.5 µg/mL (≈ 32.6 µM). The MIC [21, 36] was over 100 µg/mL, the MIC ([22]; R5, Table 6, Ec-55) was 100 µg/mL (≈ 261 µM) and the MIC [23, 37] was 50 µg/mL (≈ 130 µM). The MIC [24, 38] was 50 µg/mL (≈ 130 µM), the bio-activity [25] was “bio-active” and the “intrinsic activity in terms of MIC values” [25] was “moderate or rather weak”. For the same compound, the antibacterial spectrum ([25]; listed as B) was “broad spectrum of antibacterial activity against Gram-positive and Gram-negative bacteria including many of the aminoglycoside-resistant organisms and Pseudomonas strains”, the “medium of greatest in vitro activity” value [26] was “the greatest in vitro activity was demonstrated when Nutrient Agar was used” and the “solubility in methanol and ethanol” value [27] was “slightly soluble”. The “solubility in n-butanol, acetone and other common organic solvents” value [27] was “practically insoluble”, the solubility in water [27] was “soluble” and the in vivo activity [28] was “afforded in vivo activity against all three of the infections tested”.
